Where two headings read alike, the source gives them in different places. Each block holds one compound with its values, some of them ahead of it.
Legend:
[1] = molecular target: T1, breast cancer resistance protein (BCRP) (Homo sapiens, UniProt Q9UNQ0); test: In vitro efflux transporter study, BCRP; format: in vitro ADME
T1 sequence (Q9UNQ0 1-655): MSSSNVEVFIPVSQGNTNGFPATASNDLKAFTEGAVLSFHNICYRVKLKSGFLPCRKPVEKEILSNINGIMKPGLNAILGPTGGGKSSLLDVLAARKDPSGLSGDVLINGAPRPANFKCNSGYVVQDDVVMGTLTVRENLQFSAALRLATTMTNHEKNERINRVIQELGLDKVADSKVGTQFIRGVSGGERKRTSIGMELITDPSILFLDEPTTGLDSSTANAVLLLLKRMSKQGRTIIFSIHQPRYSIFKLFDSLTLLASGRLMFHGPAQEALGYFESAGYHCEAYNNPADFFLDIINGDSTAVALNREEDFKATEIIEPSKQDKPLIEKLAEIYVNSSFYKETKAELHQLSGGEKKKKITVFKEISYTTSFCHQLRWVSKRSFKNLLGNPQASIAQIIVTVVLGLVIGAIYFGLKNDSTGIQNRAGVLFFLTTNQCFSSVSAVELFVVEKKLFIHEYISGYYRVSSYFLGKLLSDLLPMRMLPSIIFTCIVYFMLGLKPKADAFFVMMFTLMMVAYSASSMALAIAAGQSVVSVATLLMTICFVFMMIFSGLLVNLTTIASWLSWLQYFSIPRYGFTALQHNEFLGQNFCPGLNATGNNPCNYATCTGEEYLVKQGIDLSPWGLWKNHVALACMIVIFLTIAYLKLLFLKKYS

CYP3A [2] = conditions: healthy adults, total daily dose ≤720 mg; cited from earlier work
P‐glycoprotein (Pgp) = P‐glycoprotein (Pgp) (Homo sapiens, UniProt P08183); test: In vitro efflux transporter study, P-glycoprotein; format: in vitro ADME
Chain of P‐glycoprotein (Pgp) (P08183 whole entry): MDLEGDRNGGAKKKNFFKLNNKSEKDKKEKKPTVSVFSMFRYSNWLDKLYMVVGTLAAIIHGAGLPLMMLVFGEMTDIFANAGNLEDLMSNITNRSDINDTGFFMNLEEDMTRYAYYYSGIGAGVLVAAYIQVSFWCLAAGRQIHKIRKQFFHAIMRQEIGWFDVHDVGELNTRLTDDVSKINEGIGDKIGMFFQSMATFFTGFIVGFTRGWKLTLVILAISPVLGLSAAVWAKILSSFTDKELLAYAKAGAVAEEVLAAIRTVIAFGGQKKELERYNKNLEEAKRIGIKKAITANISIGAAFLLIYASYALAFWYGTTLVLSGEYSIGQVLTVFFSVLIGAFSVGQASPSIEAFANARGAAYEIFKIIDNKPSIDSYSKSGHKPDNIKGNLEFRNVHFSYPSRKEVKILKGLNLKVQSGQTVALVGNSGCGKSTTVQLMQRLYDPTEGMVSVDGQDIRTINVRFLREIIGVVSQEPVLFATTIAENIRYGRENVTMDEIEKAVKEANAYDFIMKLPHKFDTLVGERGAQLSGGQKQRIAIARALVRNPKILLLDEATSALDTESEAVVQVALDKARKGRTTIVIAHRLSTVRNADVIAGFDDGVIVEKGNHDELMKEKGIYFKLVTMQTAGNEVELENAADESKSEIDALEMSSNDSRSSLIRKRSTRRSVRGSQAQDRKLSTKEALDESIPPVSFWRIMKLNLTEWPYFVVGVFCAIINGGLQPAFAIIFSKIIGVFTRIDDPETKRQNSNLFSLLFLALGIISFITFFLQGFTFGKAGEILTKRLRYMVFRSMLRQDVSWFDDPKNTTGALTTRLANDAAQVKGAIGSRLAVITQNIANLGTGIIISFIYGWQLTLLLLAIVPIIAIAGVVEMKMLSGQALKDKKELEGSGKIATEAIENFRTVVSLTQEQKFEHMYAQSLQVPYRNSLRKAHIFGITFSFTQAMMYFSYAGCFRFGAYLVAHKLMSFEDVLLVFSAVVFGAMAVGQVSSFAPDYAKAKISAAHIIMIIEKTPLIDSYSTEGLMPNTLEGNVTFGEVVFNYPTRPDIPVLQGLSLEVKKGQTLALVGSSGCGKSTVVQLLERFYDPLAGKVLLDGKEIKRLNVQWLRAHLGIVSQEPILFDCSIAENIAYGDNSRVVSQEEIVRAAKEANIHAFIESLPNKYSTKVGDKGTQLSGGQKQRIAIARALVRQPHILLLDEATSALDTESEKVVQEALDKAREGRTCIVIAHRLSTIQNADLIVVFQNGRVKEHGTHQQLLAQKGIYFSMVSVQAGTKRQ

[3] = Phase I DDI study: safety and tolerability; format: in vivo, human; conditions: for overall safety and tolerability: healthy participants, clesacostat 15 mg b.i.d., ervogastat 300 mg b.i.d.
[4] = format: in vivo, human; conditions: for T max / Tmax: median (range); for PTR (peak-to-trough ratio): geometric mean; for CL/F: geometric mean (%CV); for Tmax: T max
CYP3A [5] = test: In vitro CYP3A induction in human hepatocytes; format: in vitro ADME
CYP3A [6] = test: In vitro CYP3A time-dependent inhibition; format: in vitro ADME; conditions: 0–300 μM
[7] = format: in vivo, human
[8] = ervogastat 300 mg + clesacostat 15 mg b.i.d., Day 14
[9] = ervogastat 300 mg b.i.d. alone, Day 7
[10] = same participant, Day 9 (7 days clesacostat alone then 2 days with ervogastat)
[11] = clesacostat 15 mg b.i.d. co-administered with ervogastat 300 mg b.i.d.

inhibition of BCRP [1]: may inhibit | substrate for BCRP [1]: substrates | inhibition of Pgp (P‐glycoprotein (Pgp)): may inhibit | substrate for Pgp (P‐glycoprotein (Pgp)): substrates | T max ([4]; ervogastat 300 mg + clesacostat 15 mg b.i.d., Day 14, n=9): 2.00 (1.00–2.00) h | PTR (peak-to-trough ratio) [4, 8]: 150 | CL/F [4, 8]: 31.76 (34) L/h | T max ([4]; ervogastat 300 mg b.i.d. alone, Day 7, n=9): 2.00 (1.00–4.00) h | PTR (peak-to-trough ratio) [4, 9]: 94.3 | CL/F [4, 9]: 34.41 (19) L/h | AUC ([4]; human, plasma, oral, 300 mg): 8720 ng·h/mL | Cmax ([4]; human, plasma, oral, 300 mg): 2390 ng/mL | Tmax ([4]; human, plasma, oral, 300 mg, ervogastat 300 mg b.i.d. alone, Day 7, n=9): ~2 h | Tmax ([4]; human, plasma, oral, ervogastat 300 mg + clesacostat 15 mg b.i.d., Day 14, n=9): ~2 h | EC50 (CYP3A [5]): 21.4 to 37.2 µM
SMILES: CCOc1cccnc1Oc1cncc(-c2ncc(C(=O)N[C@H]3CCOC3)cn2)c1 [ervogastat]
change in 4β-hydroxycholesterol (CYP3A [2]): no changes | overall safety and tolerability [3]: generally safe and well tolerated

SMILES: COc1cc(C(=O)N2CCC3(CC2)CC(=O)c2c(cnn2C(C)C)C3)cc(-c2ccc(C(=O)O)cc2)n1 [clesacostat]
substrate for BCRP [1]: substrates | substrate for Pgp (P‐glycoprotein (Pgp)): substrates | overall safety and tolerability [3]: generally safe and well tolerated | ALT elevation [3, 10]: 3.8 × ULN | AST elevation [3, 10]: 2.9 × ULN | GGT elevation [3, 10]: 3.3 × ULN | composite slope based on observed inactivation rate constant (k obs) (CYP3A [6]; midazolam as probe): 0.452 M⁻¹ s⁻¹ | composite slope based on observed inactivation rate constant (k obs) (CYP3A [6]; testosterone as probe): 0.398 M⁻¹ s⁻¹ | decrease in mean systemic exposure based on AUCtau [7, 11]: 19% | decrease in mean systemic exposure based on C max [7, 11]: 12% | AUC ([7]; human, plasma, oral, 15 mg): 12100 ng·h/mL | Cmax ([7]; human, plasma, oral, 15 mg): 1340 ng/mL | Tmax ([7]; human, plasma, oral, 15 mg): 4 h
